Results from ChEMBL document CHEMBL1150648, “Coproverdine, a novel, cytotoxic marine alkaloid from a new zealand ascidian” (J Nat Prod, 2002).

Assays:
Assay type in all cases: functional, cell-based
P388 = test: Cytotoxicity against mouse P388 cells
A549 = test: Cytotoxicity against human A549 cells
HT-29 = test: Cytotoxicity against human HT-29 cells
SK-MEL-28 = test: Cytotoxicity against human SK-MEL-28 cells
DU-145 = test: Cytotoxicity against human DU145 cells

In the case of `COC(=O)c1cccc2c3c(n(O)c12)C(O)(C=O)C=CC3=O` (stereo not given) [COPROVERDINE], the IC50 (P388) is reported as 1600 nM, the IC50 (A549) is reported as 300 nM and the IC50 (HT-29) is reported as 300 nM. It also gave an IC50 (SK-MEL-28) of 300 nM and an IC50 (DU-145) of 300 nM.
